{"source": "patent US10538567B2", "about": "“Compounds as peptidic trigonal GLP1/glucagon/GIP receptor agonists” (priority 2016, dated 2020)", "key": {"[1]": {"test": "Solubility assessment in solubility buffer system A", "format": "physicochemical", "settings": "acetate buffer pH 4.5 with m-cresol; acetate buffer pH 4.5, 2.7 mg/ml m-cresol, target 10 mg/ml", "procedure": "Prior to the solubility measurement of a peptide batch, its purity was determined through UPLC/MS.\nTherefore solutions from solid samples were prepared in a buffer system with a concentration of 10 mg/mL compound based on the previously determined % purity:\nSolubility buffer system A) Acetate Buffer pH 4.5, 100 mM sodium acetate trihydrate, 2.7 mg/ml m-Cresol\nUPLC-UV was performed after 1 hour of gentle agitation from the supernatant, which was obtained after 15 min of centrifugation at 2500 RCF (relative centrifugal acceleration).\nThe solubility was determined by the comparison of the UV peak area of 2 μL-injection of a buffered sample diluted 1:10 with a standard curve of a reference peptide with known concentration. The different UV extinction coefficients of sample and reference peptide were calculated based on the different amino acid sequences and considered in the concentration calculation.\nPeptide samples were prepared in solubility buffer system A and solubility was assessed as described in Methods."}, "[2]": {"molecular_target": "T1, human GIP receptor (Homo sapiens, UniProt P48546)", "T1 construct": "expressed in transfected cells; host or cells: HEK-293", "T1 sequence (P48546 22-466)": "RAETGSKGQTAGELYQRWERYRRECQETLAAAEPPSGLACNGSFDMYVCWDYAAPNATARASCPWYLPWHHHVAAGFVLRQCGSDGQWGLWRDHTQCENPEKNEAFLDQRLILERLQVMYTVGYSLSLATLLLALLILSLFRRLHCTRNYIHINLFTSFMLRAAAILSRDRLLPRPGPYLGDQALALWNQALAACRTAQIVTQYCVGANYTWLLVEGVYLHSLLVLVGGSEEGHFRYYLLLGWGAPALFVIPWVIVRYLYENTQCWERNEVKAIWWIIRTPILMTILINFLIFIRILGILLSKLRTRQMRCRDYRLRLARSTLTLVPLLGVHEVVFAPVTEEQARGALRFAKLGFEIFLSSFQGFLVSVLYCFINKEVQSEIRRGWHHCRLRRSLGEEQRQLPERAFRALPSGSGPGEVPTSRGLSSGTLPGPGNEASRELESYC", "test": "cAMP response (HTRF) of HEK-293 cells stably expressing human GIP receptor", "format": "cell-based", "settings": "Table 8; read-out: EC50 hGIP R", "procedure": "Agonism of compounds for the receptors was determined by functional assays measuring cAMP response of HEK-293 cell lines stably expressing human GLP-1, GIP or glucagon receptor.\ncAMP content of cells was determined using a kit from Cisbio Corp. (cat. no. 62AM4PEJ) based on HTRF (Homogenous Time Resolved Fluorescence). For preparation, cells were split into T175 culture flasks and grown overnight to near confluency in medium (DMEM/10% FBS). Medium was then removed and cells washed with PBS lacking calcium and magnesium, followed by proteinase treatment with accutase (Sigma-Aldrich cat. no. A6964). Detached cells were washed and resuspended in assay buffer (1×HBSS; 20 mM HEPES, 0.1% BSA, 2 mM IBMX) and cellular density determined. They were then diluted to 400000 cells/ml and 25 μl-aliquots dispensed into the wells of 96-well plates. For measurement, 25 μl of test compound in assay buffer was added to the wells, followed by incubation for 30 minutes at room temperature. After addition of HTRF reagents diluted in lysis buffer (kit components), the plates were incubated for 1 hr, followed by measurement of the fluorescence ratio at 665/616 nm. In vitro potency of agonists was quantified by determining the concentrations that caused 50% activation of maximal response (EC50).\nPotencies of peptidic compounds at the GLP-1, glucagon and GIP receptors were determined by exposing cells expressing human glucagon receptor (hGlucagon R), human GIP receptor (hGIP-R) or human GLP-1 receptor (hGLP-1 R) to the listed compounds at increasing concentrations and measuring the formed cAMP as described in Methods."}}, "note": "Numbered stars: 1 amine (or outer) side, 2 acyl side, 3 side chain; on linkers, the order of the positions; unused ones are H or OH. Square brackets hold non-standard residues; d marks the D form. Side chains are listed from the residue outwards. Peptide text beside a SMILES is read from it. * marks the point of attachment. γGlu = O=C(O)[C@H](CCC(=O)[*:2])N[*:1]; Palmitoyl = CCCCCCCCCCCCCCCC(=O)*; Aib = CC(C)(N)C(=O)O"}
{"smiles": "CCCCCCCCCCCCCCCC(=O)N[C@@H](CCC(=O)N[C@@H](CCC(=O)NCCCC[C@H](NC(=O)[C@H](CC(C)C)NC(=O)[C@H](CCCCN)NC(=O)[C@H](CO)NC(=O)[C@H](CC(C)C)NC(=O)[C@H](CC(=O)O)NC(=O)[C@H](CO)NC(=O)[C@@H](NC(=O)[C@H](Cc1ccccc1)NC(=O)[C@@H](NC(=O)CNC(=O)[C@H](Cc1c[nH]cn1)NC(=O)C(C)(C)NC(=O)[C@@H](N)Cc1c[nH]cn1)[C@@H](C)O)[C@@H](C)O)C(=O)N[C@@H](CCC(=O)O)C(=O)N[C@@H](CCC(=O)O)C(=O)N[C@@H](CCC(N)=O)C(=O)N[C@@H](CCCNC(=N)N)C(=O)N[C@@H](CCC(N)=O)C(=O)N[C@@H](CCCCN)C(=O)N[C@@H](CCC(=O)O)C(=O)N[C@@H](Cc1ccccc1)C(=O)N[C@H](C(=O)N[C@@H](CCC(=O)O)C(=O)N[C@@H](Cc1c[nH]c2ccccc12)C(=O)N[C@@H](CC(C)C)C(=O)N[C@@H](CCCCN)C(=O)N[C@@H](C)C(=O)NCC(=O)NCC(=O)N[C@@H](Cc1c[nH]cn1)C(=O)N1CCC[C@H]1C(=O)N[C@@H](CO)C(=O)NC(C)(C)C(=O)N[C@@H](CCCCN)C(=O)N1CCC[C@H]1C(=O)N1CCC[C@H]1C(=O)N1CCC[C@H]1C(=O)N[C@@H](CCCCN)C(N)=O)[C@@H](C)CC)C(=O)O)C(=O)O", "note": "[SEQ ID NO: 6, H-Aib-H-G-T-F-T-S-D-L-S-K-L-K[gGlu-gGlu-Palm]-E-E-Q-R-Q-K-E-F-I-E-W-L-K-A-G-G-H-P-S-Aib-K-P-P-P-K-NH2]", "values": [{"measurement": "solubility at 1 h", "setting": "[1]", "value": "> 9700", "unit": "µg/mL"}]}
{"smiles": "CCCCCCCCCCCCCCCC(=O)N[C@@H](CCC(=O)N[C@@H](CCC(=O)NCCCC[C@H](NC(=O)[C@H](CC(C)C)NC(=O)[C@H](CCCCN)NC(=O)[C@H](CO)NC(=O)[C@H](CC(C)C)NC(=O)[C@H](CC(=O)O)NC(=O)[C@H](CO)NC(=O)[C@@H](NC(=O)[C@H](Cc1ccccc1)NC(=O)[C@@H](NC(=O)CNC(=O)[C@H](Cc1c[nH]cn1)NC(=O)C(C)(C)NC(=O)[C@@H](N)Cc1c[nH]cn1)[C@@H](C)O)[C@@H](C)O)C(=O)N[C@@H](CCC(=O)O)C(=O)N[C@@H](CCC(=O)O)C(=O)N[C@@H](CCC(N)=O)C(=O)N[C@@H](CCCNC(=N)N)C(=O)N[C@@H](CCC(N)=O)C(=O)N[C@@H](CCCCN)C(=O)N[C@@H](CCC(=O)O)C(=O)N[C@@H](Cc1ccccc1)C(=O)N[C@H](C(=O)N[C@@H](CCC(=O)O)C(=O)N[C@@H](Cc1c[nH]c2ccccc12)C(=O)N[C@@H](CC(C)C)C(=O)N[C@@H](CCCCN)C(=O)N[C@@H](C)C(=O)N[C@H](C)C(=O)NCC(=O)N[C@@H](Cc1c[nH]cn1)C(=O)N1CCC[C@H]1C(=O)N[C@@H](CO)C(=O)NC(C)(C)C(=O)N[C@@H](CCCCN)C(=O)N1CCC[C@H]1C(=O)N1CCC[C@H]1C(=O)N1CCC[C@H]1C(=O)N[C@@H](CCCCN)C(N)=O)[C@@H](C)CC)C(=O)O)C(=O)O", "note": "[SEQ ID NO: 7, H-Aib-H-G-T-F-T-S-D-L-S-K-L-K[gGlu-gGlu-Palm]-E-E-Q-R-Q-K-E-F-I-E-W-L-K-A-dAla-G-H-P-S-Aib-K-P-P-P-K-NH2] (H-H[Aib]HGTFTSDLSKLK([γGlu-γGlu-Palmitoyl])EEQRQKEFIEWLKA[dA]GHPS[Aib]KPPPK-NH2)", "values": [{"measurement": "EC50", "setting": "[2]", "value": 2.6, "unit": "pM"}]}
{"smiles": "CCCCCCCCCCCCCCCC(=O)N[C@@H](CCC(=O)N[C@@H](CCC(=O)NCCCC[C@H](NC(=O)[C@H](CC(C)C)NC(=O)[C@H](CCCCN)NC(=O)[C@H](CO)NC(=O)[C@H](CC(C)C)NC(=O)[C@H](CC(=O)O)NC(=O)[C@H](CO)NC(=O)[C@@H](NC(=O)[C@H](Cc1ccccc1)NC(=O)[C@@H](NC(=O)CNC(=O)[C@H](Cc1c[nH]cn1)NC(=O)C(C)(C)NC(=O)[C@@H](N)Cc1c[nH]cn1)[C@@H](C)O)[C@@H](C)O)C(=O)N[C@@H](CCC(=O)O)C(=O)N[C@@H](CCC(=O)O)C(=O)N[C@@H](CCC(N)=O)C(=O)N[C@@H](CCCNC(=N)N)C(=O)N[C@@H](CCC(N)=O)C(=O)N[C@@H](CCCCN)C(=O)N[C@@H](CCC(=O)O)C(=O)N[C@@H](Cc1ccccc1)C(=O)N[C@H](C(=O)N[C@@H](CCC(=O)O)C(=O)N[C@@H](Cc1c[nH]c2ccccc12)C(=O)N[C@@H](CC(C)C)C(=O)N[C@@H](CCCCN)C(=O)N[C@@H](C)C(=O)N[C@H](C)C(=O)NCC(=O)N1CCC[C@H]1C(=O)N1CCC[C@H]1C(=O)N[C@@H](CO)C(=O)NC(C)(C)C(=O)N[C@@H](CCCCN)C(=O)N1CCC[C@H]1C(=O)N1CCC[C@H]1C(=O)N1CCC[C@H]1C(=O)N[C@@H](CCCCN)C(N)=O)[C@@H](C)CC)C(=O)O)C(=O)O", "note": "[SEQ ID NO: 9, H-Aib-H-G-T-F-T-S-D-L-S-K-L-K[gGlu-gGlu-Palm]-E-E-Q-R-Q-K-E-F-I-E-W-L-K-A-dAla-G-P-P-S-Aib-K-P-P-P-K-NH2] (H-H[Aib]HGTFTSDLSKLK([γGlu-γGlu-Palmitoyl])EEQRQKEFIEWLKA[dA]GPPS[Aib]KPPPK-NH2)", "values": [{"measurement": "EC50", "setting": "[2]", "value": 2.6, "unit": "pM"}, {"measurement": "solubility at 1 h", "setting": "[1]", "value": "> 9300", "unit": "µg/mL"}]}
{"smiles": "CCCCCCCCCCCCCCCC(=O)N[C@@H](CCC(=O)N[C@@H](CCC(=O)NCCCC[C@H](NC(=O)[C@H](CC(C)C)NC(=O)[C@H](CCCCN)NC(=O)[C@H](CO)NC(=O)[C@H](CC(C)C)NC(=O)[C@H](CC(=O)O)NC(=O)[C@H](CO)NC(=O)[C@@H](NC(=O)[C@H](Cc1ccccc1)NC(=O)[C@@H](NC(=O)CNC(=O)[C@H](Cc1c[nH]cn1)NC(=O)C(C)(C)NC(=O)[C@@H](N)Cc1c[nH]cn1)[C@@H](C)O)[C@@H](C)O)C(=O)N[C@@H](CCC(=O)O)C(=O)N[C@@H](CCC(=O)O)C(=O)N[C@@H](CCC(N)=O)C(=O)N[C@@H](CCCNC(=N)N)C(=O)N[C@@H](CCC(N)=O)C(=O)NC(C)(C)C(=O)N[C@@H](CCC(=O)O)C(=O)N[C@@H](Cc1ccccc1)C(=O)N[C@H](C(=O)N[C@@H](CCC(=O)O)C(=O)N[C@@H](Cc1c[nH]c2ccccc12)C(=O)N[C@@H](CC(C)C)C(=O)N[C@@H](CCCCN)C(=O)N[C@@H](C)C(=O)NCC(=O)NCC(=O)N1CCC[C@H]1C(=O)N1CCC[C@H]1C(=O)N[C@@H](CO)C(=O)NC(C)(C)C(=O)N[C@@H](CCCCN)C(=O)N1CCC[C@H]1C(=O)N1CCC[C@H]1C(=O)N1CCC[C@H]1C(=O)N[C@@H](CCCCN)C(N)=O)[C@@H](C)CC)C(=O)O)C(=O)O", "note": "[SEQ ID NO: 10, H-Aib-H-G-T-F-T-S-D-L-S-K-L-K[gGlu-gGlu-Palm]-E-E-Q-R-Q-Aib-E-F-I-E-W-L-K-A-G-G-P-P-S-Aib-K-P-P-P-K-NH2]", "values": [{"measurement": "EC50", "setting": "[2]", "value": 1.1, "unit": "pM"}, {"measurement": "solubility at 1 h", "setting": "[1]", "value": "> 9800", "unit": "µg/mL"}]}
